The assay concerns the target T1, human A2a receptor (Homo sapiens, UniProt P29274).
T1 construct: purchased Perkin-Elmer RBHA2AM400UA; host or cells: HEK293 cells, used as a membrane preparation
Kind of assay: A2a receptor competition binding assay (Scintillation Proximity). The conditions noted are these: membranes from HEK293 cells expressing human A2a receptor; 0.5 nM tritiated ligand; Cheng-Prusoff; read-out: A2a Ki. The method, then:
Binding affinities of compounds of the invention for the human A2a receptor were determined in a competition binding assay using Scintillation Proximity technology. Thus, 0.3 μg of membranes from HEK293 cells expressing the human A2a receptor were incubated with a compound of the invention at concentrations ranging from 3000 nM to 0.15 nM in a reaction mixture containing also 0.5 nM of a tritiated form of 5-amino-7-[2-phenethyl]-2-(furan-2-yl)-7H-pyrazolo[4,3-e][1,2,4]triazolo[1,5-c]pyrimidine (the tritiated compound) and 100 μg of wheat germ agglutin-coated yttrium silicate SPA beads for one hour at room temperature with agitation. The beads were then allowed to settle to the bottom of the wells for 1 hr, after which the membrane-associated radioactivity was determined by scintillation counting in a TopCount microplate reader. Ki values were determined using the Cheng-Prusoff equation.
Summary of Materials and Methods Used in A2a Activity Determination:
HEK293 cells expressing the human, rat, dog or monkey adenosine 2a receptor (Purchased from Perkin-Elmer #RBHA2AM400UA).
The Tritiated compound was prepared according to published methods.
Wheat germ agglutinin-coated yttrium silicate SPA beads (GE Healthcare #RPNQ0023). Dilute to 25 mg/ml in assay buffer.
Assay Buffer was prepared using Dulbecco's calcium and magnesium free phosphate buffered saline+10 mMMgCl2
Adenosine deaminase from calf intestine, 10 mg/2 ml (Roche #10 102 105 001).
A2a antagonist standard (9-chloro-1-(2-furanyl)-[1,2,4]triazolo1,5-c]quinazolin-5-amine from Tocris Bioscience)
Make eight 1:3 serial dilutions in 100% DMSO from a 3 mM compound stock
Transfer 50 nl of compound into a 384-well OptiPlate (Perkin Elmer).
Typically, final concentrations of compound used in the assay ranged from 3000 nM to 0.152 nM.
Dilute a solution of the Tritiated compound to 1.25 nM in assay buffer. This is a 2.5× solution. The final concentration in the assay is 0.5 nM. Calculate the concentration by counting two 5 μl aliquots.
Use 0.25 ug of membrane/well. Dilute membranes to 9.7 μg/ml in assay buffer. Treat with 20 ug/ml adenosine deaminase (ADA) for 15 minutes at room temperature to degrade endogenous adenosine.
Use 100 μg/well wheat germ agglutinin-coated yttrium silicate SPA beads.
Mix ADA-treated membranes and SPA beads together for 30 min prior to assay.
To the Perkin-Elmer Optiplate-384 containing the compound titration add 20 μl of 2.5× solution of the Tritiated compound and 30 μl of the membrane-bead mixture. Incubate for one hour at room temperature with agitation.
Include total binding (assay buffer+1% DMSO) and non-specific binding (CGS15943, 1 μM) wells.
Allow the beads to settle for one hour.
A curve fitting program (i.e., Prism, Activity Base, Chemcart) is used to determine the EC50. The Ki value is calculated using the Cheng-Prusoff equation. Ki=EC50/(1+(radioligand concentration/Kd))
For orientation: Scintillation proximity formats need no separation of bound from free tracer.

Usually Ki stands for the dissociation constant of the complex between target and ligand, obtained from inhibition or displacement.

T1 sequence (P29274 whole entry): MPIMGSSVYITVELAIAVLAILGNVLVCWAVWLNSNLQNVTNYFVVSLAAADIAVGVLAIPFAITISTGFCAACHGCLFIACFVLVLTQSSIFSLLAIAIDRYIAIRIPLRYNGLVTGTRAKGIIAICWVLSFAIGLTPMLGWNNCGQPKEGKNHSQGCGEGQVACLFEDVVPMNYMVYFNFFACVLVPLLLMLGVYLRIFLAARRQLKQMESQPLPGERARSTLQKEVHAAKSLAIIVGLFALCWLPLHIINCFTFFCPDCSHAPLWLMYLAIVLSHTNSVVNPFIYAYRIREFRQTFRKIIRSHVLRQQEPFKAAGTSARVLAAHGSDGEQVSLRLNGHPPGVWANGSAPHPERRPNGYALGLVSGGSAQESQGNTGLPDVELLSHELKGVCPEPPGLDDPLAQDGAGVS

Consider `Nc1nc2c(F)cccc2c2nc(Cc3ccccc3CN3CCN(c4nc5ccccc5o4)CC3)cn12`, for which the inhibitory constant (Ki) turned out to be 20 nM.

Turning to `COc1cccc2c1nc(N)n1cc(Cc3ccccc3)nc21` [Ex-01, 2-benzyl-7-methoxyimidazo[1,2-c]quinazolin-5-amine], the Ki was determined as 0.4 nM. The result for `Nc1nc2ccccc2c2nc(Cc3ccccc3)cn12` [Ex-02, 2-benzylimidazo[1,2-c]quinazolin-5-amine] reads 5.8 nM; that for `COc1ccc2c(c1)nc(N)n1cc(Cc3ccccc3)nc21` [Ex-03, 2-benzyl-8-methoxyimidazo[1,2-c]quinazolin-5-amine], 2.6 nM.

On to `COc1ccc2nc(N)n3cc(Cc4ccccc4)nc3c2c1` [Ex-04, 2-benzyl-9-methoxyimidazo[1,2-c]quinazolin-5-amine], for which the Ki was 89.6 nM. In the case of `COc1cccc2nc(N)n3cc(Cc4ccccc4)nc3c12` [Ex-05, 2-benzyl-10-methoxyimidazo[1,2-c]quinazolin-5-amine] it was 642 nM; in that of `Nc1nc2c(F)cccc2c2nc(Cc3ccccc3)cn12` [Ex-06, 2-benzyl-7-fluoroimidazo[1,2-c]quinazolin-5-amine], 0.9 nM; in that of `Nc1nc2cc(F)ccc2c2nc(Cc3ccccc3)cn12` [Ex-07, 2-benzyl-8-fluoroimidazo[1,2-c]quinazolin-5-amine], 4.6 nM. On to `Nc1nc2ccc(F)cc2c2nc(Cc3ccccc3)cn12` [Ex-08, 2-benzyl-9-fluoroimidazo[1,2-c]quinazolin-5-amine], for which the Ki was 3.6 nM. With `Nc1nc2cccc(F)c2c2nc(Cc3ccccc3)cn12` [Ex-09, 2-benzyl-10-fluoroimidazo[1,2-c]quinazolin-5-amine], the Ki amounted to 6.3 nM. In the case of `Nc1nc2c(OC(F)(F)F)cccc2c2nc(Cc3ccccc3)cn12` [Ex-10, 2-benzyl-7-(trifluoromethoxy)imidazo[1,2-c]quinazolin-5-amine] it was 6.2 nM; in that of `COc1c(F)ccc2c1nc(N)n1cc(Cc3ccccc3)nc21` [Ex-11, 2-benzyl-8-fluoro-7-methoxyimidazo[1,2-c]quinazolin-5-amine], 2 nM; in that of `Nc1nc2c(F)ccc(Br)c2c2nc(Cc3ccccc3)cn12` [Ex-12, 2-benzyl-10-bromo-7-fluoroimidazo[1,2-c]quinazolin-5-amine], 7.7 nM.

As for `Nc1nc2cc(N3CCOCC3)c(F)cc2c2nc(Cc3ccccc3)cn12` [Ex-13, 2-benzyl-9-fluoro-8-morpholinoimidazo[1,2-c]quinazolin-5-amine], the inhibition constant (Ki) stood at 920 nM. In the case of `Nc1nc2ccccc2c2nc(Cc3ccccc3C(F)(F)F)cn12` [Ex-14, 2-(2-(trifluoromethyl)benzyl)imidazo[1,2-c]quinazolin-5-amine] it was 2.3 nM. As for `Nc1nc2ccccc2c2nc(Cc3cccc4cccnc34)cn12` [Ex-15, 2-(quinolin-8-ylmethyl)imidazo[1,2-c]quinazolin-5-amine], the Ki amounted to 2 nM. The result for `COc1cccc2c1nc(N)n1cc(Cc3cccc4cccnc34)nc21` [Ex-16, 7-methoxy-2-(quinolin-8-ylmethyl)imidazo[1,2-c]quinazolin-5-amine] reads 0.3 nM; that for `COc1cccc2c1nc(N)n1cc(Cc3ccccc3C(F)(F)F)nc21` [Ex-17, 7-methoxy-2-(2-(trifluoromethyl)benzyl)imidazo[1,2-c]quinazolin-5-amine], 0.8 nM; that for `COc1cccc2c1nc(N)n1cc(Cc3ccc(F)cc3F)nc21` [Ex-18, 2-(2,4-difluorobenzyl)-7-methoxyimidazo[1,2-c]quinazolin-5-amine], 1 nM. In the case of `COc1cccc2c1nc(N)n1cc(Cc3ccccc3N3CCOCC3)nc21` [Ex-19, 7-methoxy-2-(2-morpholinobenzyl)imidazo[1,2-c]quinazolin-5-amine] it was 4.5 nM; in that of `COc1cccc2c1nc(N)n1cc(Cc3ccccc3N(C)C)nc21` [Ex-20, 2-(2-(dimethylamino)benzyl)-7-methoxyimidazo[1,2-c]quinazolin-5-amine], 1.4 nM.

Consider `COc1cccc2c1nc(N)n1cc(Cc3ccc(F)cc3)nc21` [Ex-21, 2-(4-fluorobenzyl)-7-methoxyimidazo[1,2-c]quinazolin-5-amine], for which the inhibition constant Ki amounted to 0.8 nM. The result for `COc1cccc2c1nc(N)n1cc(Cc3cccc(F)c3)nc21` [Ex-22, 2-(3-fluorobenzyl)-7-methoxyimidazo[1,2-c]quinazolin-5-amine] reads 1.9 nM. Take `COc1cccc2c1nc(N)n1cc(Cc3c(Cl)cccc3Cl)nc21` [Ex-23, 2-(2,6-dichlorobenzyl)-7-methoxyimidazo[1,2-c]quinazolin-5-amine]: the Ki amounted to 2.1 nM. The result for `COc1cccc2c1nc(N)n1cc(Cc3cccc(-c4ccccc4)c3)nc21` [Ex-24, 2-([1,1′-biphenyl]-3-ylmethyl)-7-methoxyimidazo[1,2-c]quinazolin-5-amine] reads 10 nM. In the case of `Nc1nc2ccccc2c2nc(Cc3ccccc3CN3CCOCC3)cn12` [Ex-25, 2-(2-(morpholinomethyl)benzyl)imidazo[1,2-c]quinazolin-5-amine] it was 10.2 nM; in that of `COc1cccc2c1nc(N)n1cc(Cc3ccccc3CN3CCOCC3)nc21` [Ex-26, 7-methoxy-2-(2-(morpholinomethyl)benzyl)imidazo[1,2-c]quinazolin-5-amine], 0.4 nM. Turning to `Nc1nc2c(F)cccc2c2nc(Cc3ccccc3-c3ccccc3)cn12` [Ex-27, 2-([1,1′-biphenyl]-2-ylmethyl)-7-fluoroimidazo[1,2-c]quinazolin-5-amine], the Ki came out at 2.6 nM. The result for `COc1cccc2c1nc(N)n1cc(Cc3cccc(N4CCOCC4)c3)nc21` [Ex-28, 7-methoxy-2-(3-morpholinobenzyl)imidazo[1,2-c]quinazolin-5-amine] reads 2.1 nM; that for `COc1cccc2c1nc(N)n1cc(Cc3ccccc3N3CCCC3)nc21` [Ex-29, 7-methoxy-2-(2-(pyrrolidin-1-yl)benzyl)imidazo[1,2-c]quinazolin-5-amine], 1.6 nM; that for `COc1cccc2c1nc(N)n1cc(Cc3cc(C(F)(F)F)ccc3N3CCOCC3)nc21` [Ex-30, 7-methoxy-2-(2-morpholino-5-(trifluoromethyl)benzyl)imidazo[1,2-c]quinazolin-5-amine], 38 nM. In the case of `COc1cccc2c1nc(N)n1cc(Cc3c(O)cccc3F)nc21` [Ex-31, 2-((5-amino-7-methoxyimidazo[1,2-c]quinazolin-2-yl)methyl)-3-fluorophenol] it was 2.1 nM. As for `Nc1nc2c(F)cccc2c2nc(Cc3cccc4cccnc34)cn12` [Ex-32, 7-fluoro-2-(quinolin-8-ylmethyl)imidazo[1,2-c]quinazolin-5-amine], the Ki stood at 2 nM. The result for `Nc1nc2c(F)cccc2c2nc(Cc3cccc(CN4CCOCC4)c3)cn12` [Ex-33, 7-fluoro-2-(3-(morpholinomethyl)benzyl)imidazo[1,2-c]quinazolin-5-amine] reads 3 nM; that for `Nc1nc2c(F)cccc2c2nc(Cc3cccc(Cc4ccccc4)c3)cn12` [Ex-34, 2-(3-benzylbenzyl)-7-fluoroimidazo[1,2-c]quinazolin-5-amine], 21 nM; that for `Nc1nc2c(F)cccc2c2nc(Cc3ccccc3CN3CCOCC3)cn12` [Ex-35, 7-fluoro-2-(2-(morpholinomethyl)benzyl)imidazo[1,2-c]quinazolin-5-amine], 6 nM. The result for `COc1cccc2c1nc(N)n1cc(Cc3ccccc3N3CCCCC3)nc21` [Ex-36, 7-methoxy-2-(2-(piperidin-1-yl)benzyl)imidazo[1,2-c]quinazolin-5-amine] reads 2.8 nM; that for `Nc1nc2c(F)cccc2c2nc(Cc3cc(F)ccc3O)cn12` [Ex-37, 2-((5-amino-7-fluoroimidazo[1,2-c]quinazolin-2-yl)methyl)-4-fluorophenol], 18 nM; that for `COc1cccc2c1nc(N)n1cc(Cc3cccnc3Cl)nc21` [Ex-38, 2-((2-chloropyridin-3-yl)methyl)-7-methoxyimidazo[1,2-c]quinazolin-5-amine], 2.3 nM. On to `COc1cccc2c1nc(N)n1cc(Cc3ccc(N4CCOCC4)nc3)nc21` [Ex-39, 7-methoxy-2-((6-morpholinopyridin-3-yl)methyl)imidazo[1,2-c]quinazolin-5-amine], for which the Ki amounted to 9.8 nM.

The values are drawn from patent publication US11498923B2 (Merck Sharp & Dohme Corp., priority 2017, dated 2022).
